From article PMC6409085, “Three odorant-binding proteins are involved in the behavioral response of Sogatella furcifera to rice plant volatiles” (PeerJ, 2019)
Several values for one entry are separate records, joined by “and”; a condition that tells them apart may be missing. Identical values can stand only once.

Tests used:
SfurOBP1 = SfurOBP1 (Sogatella furcifera, UniProt V5T8N5); test: biochemical; format: binding; settings: for Fluorescence competitive binding assay, fluorescence intensity: OBP1, three replicate columns
Sequence of SfurOBP1 (V5T8N5 entry or part of it): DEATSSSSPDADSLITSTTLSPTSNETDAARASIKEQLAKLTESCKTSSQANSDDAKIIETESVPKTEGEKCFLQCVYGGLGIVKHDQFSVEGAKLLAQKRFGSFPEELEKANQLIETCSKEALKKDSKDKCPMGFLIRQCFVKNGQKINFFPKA
Procedure, shortened: (§1)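 First, 2.0 µM protein in 50 mM Tris-HCl (pH 7.4) was titrated with 1-NPN to obtain K1-NPN. Then odorants (2–20 µM final) competed against 2.0 µM 1-NPN, with fluorescence (ex 337 nm) recorded after 2 min. Ki was computed from IC50 via Ki = IC50/(1 + [1-NPN]/K1-NPN).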

SfurOBP11 = SfurOBP11 (Sogatella furcifera, UniProt V5T6E3); test: biochemical; format: binding
Sequence of SfurOBP11 (V5T6E3 entry or part of it): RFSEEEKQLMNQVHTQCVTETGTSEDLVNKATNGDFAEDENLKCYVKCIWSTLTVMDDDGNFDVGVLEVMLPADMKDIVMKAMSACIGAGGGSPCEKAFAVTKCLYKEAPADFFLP
Procedure, shortened: as §1

SfurOBP2 = SfurOBP2 (Sogatella furcifera, UniProt V5T759); test: biochemical; format: binding
Sequence of SfurOBP2 (V5T759 entry or part of it): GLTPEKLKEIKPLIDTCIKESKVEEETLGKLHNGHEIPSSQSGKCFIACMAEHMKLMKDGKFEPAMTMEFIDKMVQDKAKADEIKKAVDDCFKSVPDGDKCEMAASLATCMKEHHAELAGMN
Procedure, shortened: as §1

SfurOBP3 = SfurOBP3 (Sogatella furcifera, UniProt V5T818); test: biochemical; format: binding; settings: for Fluorescence competitive binding assay, fluorescence intensity: OBP3, three replicate columns
Sequence of SfurOBP3 (V5T818 entry or part of it): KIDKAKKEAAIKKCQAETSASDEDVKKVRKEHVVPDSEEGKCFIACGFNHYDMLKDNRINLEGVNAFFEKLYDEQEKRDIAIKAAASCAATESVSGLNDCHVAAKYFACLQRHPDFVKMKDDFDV
Procedure, shortened: as §1

S. furcifera adults = test: Y-tube olfactometer behavioral trials; format: in vivo, Sogatella furcifera; settings: odorant 50 µL/L vs hexane; adults
Procedure, shortened: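 Single S. furcifera adults (2 days post-emergence, starved 0.5 h) chose between odorant (100 µL of 50 µL/L on filter paper) and hexane control in a glass Y-tube, charcoal-filtered humidified air 300 mL/min per arm, 25 ± 1 °C, 50% RH. Choice scored if insect passed half an arm and stayed >1 min within 10 min; 45 insects per compound, chi-squared test.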

Compound: C=CC(C)(O)CCC=C(C)C (stereo not drawn) [linalool]
- IC50 (SfurOBP1): > 20 µM
- Fluorescence competitive binding assay, fluorescence intensity (SfurOBP1; ligand concentration 2 (μM)): 6084 and 5184 and 7029
- Fluorescence competitive binding assay, fluorescence intensity (SfurOBP1; ligand concentration 4 (μM)): 5717 and 6456 and 6034
- Fluorescence competitive binding assay, fluorescence intensity (SfurOBP1; ligand concentration 6 (μM)): 5873 and 6101 and 6679
- Fluorescence competitive binding assay, fluorescence intensity (SfurOBP1; ligand concentration 8 (μM)): 5733 and 6957 and 6693
- Fluorescence competitive binding assay, fluorescence intensity (SfurOBP1; ligand concentration 10 (μM)): 5847 and 5923 and 6121
- Fluorescence competitive binding assay, fluorescence intensity (SfurOBP1; ligand concentration 12 (μM)): 6065 and 6137 and 6412
- Fluorescence competitive binding assay, fluorescence intensity (SfurOBP1; ligand concentration 14 (μM)): 7822 and 5806 and 6262
- Fluorescence competitive binding assay, fluorescence intensity (SfurOBP1; ligand concentration 16 (μM)): 5059 and 6382 and 5339
- Fluorescence competitive binding assay, fluorescence intensity (SfurOBP1; ligand concentration 18 (μM)): 6537 and 6532 and 5815
- Fluorescence competitive binding assay, fluorescence intensity (SfurOBP1; ligand concentration 20 (μM)): 6056 and 5740 and 5464
- IC50 (SfurOBP11): > 20 µM
- Fluorescence intensity, fluorescence competitive binding assay, OBP11 (SfurOBP11; ligand concentration 2, replicate 1): 34595
- Fluorescence intensity, fluorescence competitive binding assay, OBP11 (SfurOBP11; ligand concentration 2, replicate 2): 35145
- Fluorescence intensity, fluorescence competitive binding assay, OBP11 (SfurOBP11; ligand concentration 2, replicate 3): 35691
- Fluorescence intensity, fluorescence competitive binding assay, OBP11 (SfurOBP11; ligand concentration 4, replicate 1): 34126
- Fluorescence intensity, fluorescence competitive binding assay, OBP11 (SfurOBP11; ligand concentration 4, replicate 2): 38977
- Fluorescence intensity, fluorescence competitive binding assay, OBP11 (SfurOBP11; ligand concentration 4, replicate 3): 36540
- Fluorescence intensity, fluorescence competitive binding assay, OBP11 (SfurOBP11; ligand concentration 6, replicate 1): 35921
- Fluorescence intensity, fluorescence competitive binding assay, OBP11 (SfurOBP11; ligand concentration 6, replicate 2): 34102
- Fluorescence intensity, fluorescence competitive binding assay, OBP11 (SfurOBP11; ligand concentration 6, replicate 3): 34901
- Fluorescence intensity, fluorescence competitive binding assay, OBP11 (SfurOBP11; ligand concentration 8, replicate 1): 31879
- Fluorescence intensity, fluorescence competitive binding assay, OBP11 (SfurOBP11; ligand concentration 8, replicate 2): 34190
- Fluorescence intensity, fluorescence competitive binding assay, OBP11 (SfurOBP11; ligand concentration 8, replicate 3): 34940
- Fluorescence intensity, fluorescence competitive binding assay, OBP11 (SfurOBP11; ligand concentration 10, replicate 1): 32152
- Fluorescence intensity, fluorescence competitive binding assay, OBP11 (SfurOBP11; ligand concentration 10, replicate 2): 33920
- Fluorescence intensity, fluorescence competitive binding assay, OBP11 (SfurOBP11; ligand concentration 10, replicate 3): 34003
- Fluorescence intensity, fluorescence competitive binding assay, OBP11 (SfurOBP11; ligand concentration 12, replicate 1): 31331
- Fluorescence intensity, fluorescence competitive binding assay, OBP11 (SfurOBP11; ligand concentration 12, replicate 2): 31885
- Fluorescence intensity, fluorescence competitive binding assay, OBP11 (SfurOBP11; ligand concentration 12, replicate 3): 32147
- Fluorescence intensity, fluorescence competitive binding assay, OBP11 (SfurOBP11; ligand concentration 14, replicate 1): 27789
- Fluorescence intensity, fluorescence competitive binding assay, OBP11 (SfurOBP11; ligand concentration 14, replicate 2): 28913
- Fluorescence intensity, fluorescence competitive binding assay, OBP11 (SfurOBP11; ligand concentration 14, replicate 3): 26664
- Fluorescence intensity, fluorescence competitive binding assay, OBP11 (SfurOBP11; ligand concentration 16, replicate 1): 26184
- Fluorescence intensity, fluorescence competitive binding assay, OBP11 (SfurOBP11; ligand concentration 16, replicate 2): 25844
- Fluorescence intensity, fluorescence competitive binding assay, OBP11 (SfurOBP11; ligand concentration 16, replicate 3): 25199
- Fluorescence intensity, fluorescence competitive binding assay, OBP11 (SfurOBP11; ligand concentration 18, replicate 1): 30237
- Fluorescence intensity, fluorescence competitive binding assay, OBP11 (SfurOBP11; ligand concentration 18, replicate 2): 30011
- Fluorescence intensity, fluorescence competitive binding assay, OBP11 (SfurOBP11; ligand concentration 18, replicate 3): 30462
- Fluorescence intensity, fluorescence competitive binding assay, OBP11 (SfurOBP11; ligand concentration 20, replicate 1): 29291
- Fluorescence intensity, fluorescence competitive binding assay, OBP11 (SfurOBP11; ligand concentration 20, replicate 2): 29263
- Fluorescence intensity, fluorescence competitive binding assay, OBP11 (SfurOBP11; ligand concentration 20, replicate 3): 28048
- IC50 (SfurOBP2): > 20 µM
- Fluorescence competitive binding assay, OBP2 (raw fluorescence reading) (SfurOBP2; ligand concentration 2 (unit not given), replicate column 1 of 3): 22475
- Fluorescence competitive binding assay, OBP2 (raw fluorescence reading) (SfurOBP2; ligand concentration 2 (unit not given), replicate column 2 of 3): 19579
- Fluorescence competitive binding assay, OBP2 (raw fluorescence reading) (SfurOBP2; ligand concentration 2 (unit not given), replicate column 3 of 3): 19869
- Fluorescence competitive binding assay, OBP2 (raw fluorescence reading) (SfurOBP2; ligand concentration 4 (unit not given), replicate column 1 of 3): 18324
- Fluorescence competitive binding assay, OBP2 (raw fluorescence reading) (SfurOBP2; ligand concentration 4 (unit not given), replicate column 2 of 3): 21526
- Fluorescence competitive binding assay, OBP2 (raw fluorescence reading) (SfurOBP2; ligand concentration 4 (unit not given), replicate column 3 of 3): 18676
- Fluorescence competitive binding assay, OBP2 (raw fluorescence reading) (SfurOBP2; ligand concentration 6 (unit not given), replicate column 1 of 3): 20143
- Fluorescence competitive binding assay, OBP2 (raw fluorescence reading) (SfurOBP2; ligand concentration 6 (unit not given), replicate column 2 of 3): 19481
- Fluorescence competitive binding assay, OBP2 (raw fluorescence reading) (SfurOBP2; ligand concentration 6 (unit not given), replicate column 3 of 3): 21546
- Fluorescence competitive binding assay, OBP2 (raw fluorescence reading) (SfurOBP2; ligand concentration 8 (unit not given), replicate column 1 of 3): 18566
- Fluorescence competitive binding assay, OBP2 (raw fluorescence reading) (SfurOBP2; ligand concentration 8 (unit not given), replicate column 2 of 3): 19629
- Fluorescence competitive binding assay, OBP2 (raw fluorescence reading) (SfurOBP2; ligand concentration 8 (unit not given), replicate column 3 of 3): 19018
- Fluorescence competitive binding assay, OBP2 (raw fluorescence reading) (SfurOBP2; ligand concentration 10 (unit not given), replicate column 1 of 3): 17948
- Fluorescence competitive binding assay, OBP2 (raw fluorescence reading) (SfurOBP2; ligand concentration 10 (unit not given), replicate column 2 of 3): 18880
- Fluorescence competitive binding assay, OBP2 (raw fluorescence reading) (SfurOBP2; ligand concentration 10 (unit not given), replicate column 3 of 3): 17034
- Fluorescence competitive binding assay, OBP2 (raw fluorescence reading) (SfurOBP2; ligand concentration 12 (unit not given), replicate column 1 of 3): 17194
- Fluorescence competitive binding assay, OBP2 (raw fluorescence reading) (SfurOBP2; ligand concentration 12 (unit not given), replicate column 2 of 3): 16713
- Fluorescence competitive binding assay, OBP2 (raw fluorescence reading) (SfurOBP2; ligand concentration 12 (unit not given), replicate column 3 of 3): 16298
- Fluorescence competitive binding assay, OBP2 (raw fluorescence reading) (SfurOBP2; ligand concentration 14 (unit not given), replicate column 1 of 3): 15375
- Fluorescence competitive binding assay, OBP2 (raw fluorescence reading) (SfurOBP2; ligand concentration 14 (unit not given), replicate column 2 of 3): 15983
- Fluorescence competitive binding assay, OBP2 (raw fluorescence reading) (SfurOBP2; ligand concentration 14 (unit not given), replicate column 3 of 3): 16080
- Fluorescence competitive binding assay, OBP2 (raw fluorescence reading) (SfurOBP2; ligand concentration 16 (unit not given), replicate column 1 of 3): 16976
- Fluorescence competitive binding assay, OBP2 (raw fluorescence reading) (SfurOBP2; ligand concentration 16 (unit not given), replicate column 2 of 3): 14612
- Fluorescence competitive binding assay, OBP2 (raw fluorescence reading) (SfurOBP2; ligand concentration 16 (unit not given), replicate column 3 of 3): 14664
- Fluorescence competitive binding assay, OBP2 (raw fluorescence reading) (SfurOBP2; ligand concentration 18 (unit not given), replicate column 1 of 3): 15874
- Fluorescence competitive binding assay, OBP2 (raw fluorescence reading) (SfurOBP2; ligand concentration 18 (unit not given), replicate column 2 of 3): 15679
- Fluorescence competitive binding assay, OBP2 (raw fluorescence reading) (SfurOBP2; ligand concentration 18 (unit not given), replicate column 3 of 3): 13833
- Fluorescence competitive binding assay, OBP2 (raw fluorescence reading) (SfurOBP2; ligand concentration 20 (unit not given), replicate column 1 of 3): 14349
- Fluorescence competitive binding assay, OBP2 (raw fluorescence reading) (SfurOBP2; ligand concentration 20 (unit not given), replicate column 2 of 3): 13969
- Fluorescence competitive binding assay, OBP2 (raw fluorescence reading) (SfurOBP2; ligand concentration 20 (unit not given), replicate column 3 of 3): 12873
- IC50 (SfurOBP3): > 20 µM
- Fluorescence competitive binding assay, fluorescence intensity (SfurOBP3; ligand concentration 2): 45666 and 44893 and 46206
- Fluorescence competitive binding assay, fluorescence intensity (SfurOBP3; ligand concentration 4): 43749 and 45410 and 42660
- Fluorescence competitive binding assay, fluorescence intensity (SfurOBP3; ligand concentration 6): 44364 and 44740 and 45115
- Fluorescence competitive binding assay, fluorescence intensity (SfurOBP3; ligand concentration 8): 41369 and 43894 and 46339
- Fluorescence competitive binding assay, fluorescence intensity (SfurOBP3; ligand concentration 10): 41142 and 43565 and 45619
- Fluorescence competitive binding assay, fluorescence intensity (SfurOBP3; ligand concentration 12): 38618 and 37689 and 38140
- Fluorescence competitive binding assay, fluorescence intensity (SfurOBP3; ligand concentration 14): 35045 and 37361 and 38462
- Fluorescence competitive binding assay, fluorescence intensity (SfurOBP3; ligand concentration 16): 32691 and 35765 and 36425
- Fluorescence competitive binding assay, fluorescence intensity (SfurOBP3; ligand concentration 18): 35273 and 34668 and 35335
- Fluorescence competitive binding assay, fluorescence intensity (SfurOBP3; ligand concentration 20): 34176 and 32081 and 34822
- number of insects choosing hexane arm (S. furcifera adults): 14
- number of insects choosing volatilies arm (S. furcifera adults): 14
- number of insects failed (no choice) (S. furcifera adults): 12
